The record followed here is patent US20240262806A1, “INHIBITORS OF NLRP3” (PTC THERAPEUTICS, INC., priority 2021, published 2024).

One may read the pIC50 as the negative decadic logarithm of the IC50, by convention in mol/L.

pIC50: −log10 of the molar value. A value given as a limit tells only on which side of the number the result lay.

This experiment has as its system NLRP3 inflammasome. Briefly: IL-1β Secretion Assay (NLRP3-dependent IL-1β secretion in PMA-differentiated THP-1 cells, nigericin activation, HTRF). Type of experiment: cell-based. The following applies: Homo sapiens, THP-1, THP-1 cells, 100 ng/mL PMA 24 h, compound 20 h, 2.5 μM Nigericin 3 h; read-out: IC50 IL-1β Inhibition. Summed up:
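PMA-differentiated THP-1 cells in RPMI with 5% FBS were treated with compounds at 7 concentrations in threefold DMSO dilutions. NLRP3 was activated with nigericin and secreted IL-1β measured by HTRF. IC50 from a logistic fit of percent inhibition versus concentration.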
Background: In TR-FRET formats the signal depends on donor and acceptor labels being close together.
`COc1ccc(-c2nnc(N[C@@H]3CCCN(C)C3)c3cnccc23)c(C)c1` [Compound I-254]: the pIC50 was 8.00 to 9.00. Next, `Cc1noc2c(-c3ccc(C(F)(F)F)cc3O)nnc(N[C@@H]3CCCN(C)C3)c12` [Compound I-255, 2-[3-methyl-4-[[(3R)-1-methyl-3-piperidyl]amino]isoxazolo[4,5-d]pyridazin-7-yl]-5-(trifluoromethyl)phenol]: 8.00 to 9.00. Next, `Cc1noc2c(-c3ccc(C(F)(F)F)cc3O)nnc(N[C@@H]3CCCN(CCO)C3)c12` [Compound I-256, 2-[3-methyl-4-[[(3R)-1-(2-hydroxyethyl)-3-piperidyl]amino]isoxazolo[4,5-d]pyridazin-7-yl]-5-(trifluoromethyl)phenol]: 7.00 to 8.00; `Oc1cc(C(F)(F)F)ccc1-c1nnc(N[C@@H]2CCCN(C3CC(CC(F)F)C3)C2)c2cnccc12` (some centres unmarked) [Compound I-257]: 8.00 to 9.00.

Take `COc1ccc(-c2nnc(N[C@@H]3CCCN(C)C3)c3c2CCC3)c(C(F)(F)F)c1` [Compound I-258]: the pIC50 was 7.00 to 8.00.

For `CN1CCC[C@@H](Nc2nnc(-c3ccc(C(F)(F)F)cc3C(F)(F)F)c3c2CCC3)C1` [Compound I-259], the pIC50 is 7.00 to 8.00. For the molecule `CN1CCOCC(Nc2nnc(-c3ccc(C(F)(F)F)cc3O)c3cnccc23)C1` (centres unmarked) [Compound I-260], the pIC50 was 7.00 to 8.00. Next, `Oc1cc(C(F)(F)F)ccc1-c1nnc(N[C@@H]2CCCCNC2)c2cnccc12` [Compound I-261]: 8.00 to 9.00; `CN1CCOCC(Nc2nnc(-c3ccc(C(F)(F)F)cc3O)c3ccncc23)C1` (centres unmarked) [Compound I-262]: 8.00 to 9.00. Next, `CN1CCCC(Nc2nnc(-c3ccc(C(F)(F)F)cc3O)c3ccncc23)CC1` (centres unmarked) [Compound I-263]: 8.00 to 9.00; `CN1CCN(C)CC(Nc2nnc(-c3ccc(C(F)(F)F)cc3O)c3ccncc23)C1` [Compound I-264]: 7.00 to 8.00; `CN1C[C@H](Nc2nnc(-c3ccc(C(F)(F)F)cc3O)c3ccncc23)CC(F)(F)C1` [Compound I-265]: 8.00 to 9.00. Next, `CCOC(=O)[C@@H]1CC[C@@H](Nc2nnc(-c3ccc(C(F)(F)F)cc3O)c3ccncc23)CN1` [Compound I-266, Ethyl (2S,5R)-5-((1-(2-hydroxy-4-(trifluoromethyl)phenyl)pyrido[3,4-d]pyridazin-4-yl)amino)piperidine-2-carboxylate]: over 9.00; `COc1cc(C)cc(O)c1-c1nnc(N[C@@H]2CCCN(C)C2)c2cnccc12` [Compound I-267]: 8.00 to 9.00. Take `Cc1cc(O)c(-c2nnc(N[C@@H]3CCCN(C)C3)c3cnccc23)c(O)c1` [Compound I-268]: the pIC50 is over 9.00. The value for `Oc1cc(C(F)(F)F)ccc1-c1nnc(N[C@@H]2CCCN(C3COC3)C2)c2cnccc12` [Compound I-271] was 8.00 to 9.00.

Turning to `Cc1cc(C2CC2)ccc1-c1nnc(N[C@@H]2CCCN(C)C2)c2cnccc12` [Compound I-272], the pIC50 was 8.00 to 9.00. Next, `Cc1cc(O)c(-c2nnc(N[C@@H]3CCCN(CCO)C3)c3cnccc23)c(F)c1` [Compound I-273]: over 9.00; `CN1CCC[C@@H](Nc2nnc(-c3c(O)cc(C(F)(F)F)cc3C3CC3)c3ccncc23)C1` [Compound I-274, 3-Cyclopropyl-2-[4-[[(3R)-1-methyl-3-piperidyl]amino]pyrido[3,4-d]pyridazin-1-yl]-5-(trifluoromethyl)phenol]: 8.00 to 9.00. The value for `CN(C)C(C)(C)CNc1nnc(-c2ccc(C(F)(F)F)cc2O)c2ccncc12` [Compound I-275] was 8.00 to 9.00; that for `COc1cc(C(F)(F)F)ccc1-c1nnc(N[C@@H]2CCCN(CCOC(F)F)C2)c2cnccc12` [Compound I-276] was 7.00 to 8.00; that for `Oc1cc(C(F)(F)F)ccc1-c1nnc(N[C@@H]2CCCN(CC(F)F)C2)c2cnccc12` [Compound I-277] was over 9.00. Take `CN1C[C@@H](F)C[C@H](Nc2nnc(-c3ccc(C(F)(F)F)cc3O)c3ccncc23)C1` [Compound I-278]: the pIC50 is 7.00 to 8.00.
